Results published in US12595591B2, “Peptide libraries having enhanced subsequence diversity and methods for use thereof” (ROCHE […], INC., priority 2019, dated 2026).
No end group written: not given here.

How the values were obtained:
biotin-labeled DsbA [1] = target: T1, biotin-labeled DsbA (Escherichia coli, UniProt P0AEG4); experiment: Peptide microarray binding of biotin-labeled DsbA, Cy5-streptavidin fluorescence detection; conditions: fluorescent signal intensity measured by peptide microarray
T1 construct: purchased abcam
T1 sequence (P0AEG4 20-208): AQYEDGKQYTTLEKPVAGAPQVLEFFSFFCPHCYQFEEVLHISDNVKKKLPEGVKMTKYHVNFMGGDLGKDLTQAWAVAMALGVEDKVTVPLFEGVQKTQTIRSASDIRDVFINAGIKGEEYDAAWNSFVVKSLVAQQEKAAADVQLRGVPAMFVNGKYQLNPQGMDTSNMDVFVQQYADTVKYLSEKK
Text: Briefly, the peptide array was synthesized by light-directed array synthesis in a Roche NimbleGen Maskless Array Synthesizer (MAS) using an amino-functionalized substrate as previously reported (Forsström, et al., “Proteome-wide Epitope Mapping of Antibodies Using Ultra-dense Peptide Arrays,” Molecular & Cellular Proteomics 13:1585-1597 (2014) and Lyamichev, et al., “Stepwise Evolution Improves Identification of Diverse Peptides Binding to a Protein Target,” Nature Scientific Reports 7:12116 (2017), both of which are incorporated herein by reference in their entireties). L-amino acids were synthesized by Orgentis Chemicals GmbH. Custom amino acids were purchased from Lifetein. Cy5™-streptavidin was purchased from GE Healthcare, Blocker™ BSA (10%) in PBS from ThermoFisher, and SecureSeal™ hybridization chambers from Grace Bio-Labs. Final side chain deprotection was performed by incubating the microarray in 60 mM EDT and 25 mM TIPS in 95% TFA (v/v) for 30 min at room temperature. The microarray was then washed twice in methanol for 30 seconds, once in 1×TBST for 1 min, twice in TBS for 30 seconds, and then spun dry in a microcentrifuge equipped with an array holder. […] Here, 2.6 μL biotin-labeled DsbA (1.5 mg/mL, abcam) was incubated on the array in 49 μL binding buffer containing 100 mM HEPES (pH 7.3), 1% BSA, 250 mM NaCl, 20 mM L-glutathione-reduced, and 0.2 mM L-glutathione-oxidized in a hybridization chamber overnight at 4° C. After incubation, arrays were washed in water for 15 seconds placed directly into a streptavidin-Cy5 detection bath. Positive binding to DsbA was determined by the detection of Streptavidin-Cy5. Streptavidin-Cy5 binding to all arrays was performed with 20 μL streptavidin-Cy5 (1 μg/mL) in 30 mL binding buffer containing 10 mM Tris-HCl (pH 7.4), 1% Casein, 0.05% Tween-20 in a 30 mL pap jar for 1 hour at room temperature. After incubation, arrays were washed in 20 mM Tris-HCl (pH 7.8), 0.2 M NaCl, 1% SDS for 30 seconds followed by a 30 seconds wash in water. The arrays were then dried by spinning in a microcentrifuge equipped with an array holder. Data was analyzed by measuring Cy5 fluorescence intensity of the arrays and extracting data, as previously described in Lyamichev, et al. (2017).
To narrow the number of possible 15-mer peptides in both libraries down to approximately 3 million peptides, a calculation was run to select for the maximum diversity of 6mer peptide sequences. Each 15-mer sequence was replicated two times.

biotin-labeled DsbA [2] = target: T1, biotin-labeled DsbA; experiment: Biacore kinetic analysis of peptide binding to immobilized biotin-labeled DsbA
Experimental: The discovered and incrementally optimized novel DsbA-binding peptides were subject to kinetic characterization. Kinetic analysis of the interaction between the discovered peptides and DsbA was performed using a Biacore XI00. Biotin-labeled DsbA (1 uM) was immobilized on streptavidin coated chip (GE Healthcare) to a target level of 1,000 response units in HBS-P+. […] Fourteen dilutions of peptide from 5000 nM to 0.6 nM in HBS-P+ were flowed over the DsbA coated chip in triplicate with a contact time of 120 seconds and a dissociation time of 600 seconds. […] All peptides were amidated on the C-terminus.

Row | Substance | SIGNAL INTENSITY (biotin-labeled DsbA [1]) | koff (biotin-labeled DsbA [2]) [s⁻¹] | kon (biotin-labeled DsbA [2]) [M⁻¹ s⁻¹]
1 | YVYGMCWKDYTDTDK-NH2 | 2114 | 0.0627 | 538000
2 | HNWAAQCLKDQAKL-NH2 | 1759 | 0.0448 | 509000
3 | DFWHGETCKVTQFDQ-NH2 | 1801 | 0.0185 | 220000
4 | NDYQYKGQQCLDPKY-NH2 | 3623 | 0.0246 | 515000
5 | VIGQCLKN-NH2 | 588 |  | 
6 | SIIGMCYKKDPS-NH2 | 1365 |  | 
7 | HNWAAQCLNPDQAKL-NH2 | 2640 | 0.0292 | 510000
8 | YVYGMCWKDYTTDK-NH2 | 2297 | 0.057 | 728000
9 | WQYENWAITKWQCVK-NH2 | 1427 |  | 
10 | DFWHGEQCKVTQFDQ-NH2 | 4590 | 0.0139 | 259000
11 | VIVGQCLKK-NH2 | 282 |  | 
12 | PSPWATCDF-NH2 | 82 |  | 
13 | DFWHGDTCKVTQFDQ-NH2 | 1750 | 0.0271 | 130000
14 | VILGQCLKQ-NH2 | 965 |  | 
